pEC50, pIC50: −log10 of the molar value.

Data set [1] in a line: Antitumor activity against human Hep3B cells xenografted in nude mouse assessed as reduction in tumor size at 10 to 30 mg/kg/day, ip for 2 weeks (reference value: 900 mm3). In kind it is functional, Hep 3B2. To be noted: route intraperitoneal.
Data set [2] is described as follows: Apparent permeability across human Caco2 cells at 20 uM. In kind it is ADME, cell-based. Particulars: Caco-2.
Data set [3] can be described thus: Apparent permeability across human Caco2 cells at 5 uM. It counts as ADME, cell-based. Particulars: Caco-2. For orientation: Caco-2 monolayers are a common model of the intestinal barrier.
In data set [4] the test system is HCT-116. Kind of data set: Antitumor activity against human HCT116 cells xenografted in mouse assessed as inhibition of tumor growth at 30 mg/kg, iv. In kind it is functional. To be noted: read-out: TGI. For orientation: A xenograft is tissue or cells of one species grown in another, often human tumour cells in immunodeficient mice.
For data set [5], the system named is Mus musculus. Kind of data set: Toxicity in human HCT116 cells xenografted mouse assessed as decrease in body weight at 30 mg/kg, iv. Also noted: dose 30 mg/kg, route intravenous; scale not given: the % may be the effect or the level left. It counts as organism-based, HCT-116. Particulars: in vivo.
Data set [6] in a line: Antitumor activity against human […] cells xenografted in athymic nude mice assessed as reduction of tumor size at 20 mg/kg, qd. Also on record: scale not given: the % may be the effect or the level left. It counts as functional.
The nature of data set [7]: Apparent permeability across human Caco2 cells at 10 uM. To be noted: Caco-2. In kind it is ADME, cell-based.
The nature of data set [8]: Metabolic stability in human Hepatocyte assessed as compound remaining at 1 umol/L after 2 hrs by RP-HPLC analysis. In kind it is ADME, cell-based. To be noted: hepatocytes, read-out: Stability.
Data set [9] can be described thus: Metabolic stability in rat Hepatocyte assessed as compound remaining at 1 umol/L after 2 hrs by RP-HPLC analysis. In kind it is ADME, cell-based. Particulars: hepatocytes, read-out: Stability.
Data set [10] relates to Nucleic Acid. Kind of data set: Binding affinity to HIF-1 5'-CGTG-3' DNA sequence in human U251 cells assessed as inhibition of HRE-mediated reporter activation. To be noted: u-251. In kind it is cell-based.
For data set [11], the system named is MDA-MB-435. Kind of data set: Antitumor activity against human MDA-MB-435 cells xenografted in nude mouse assessed as inhibition of tumor growth at 20 to 50 mg/kg, qd for 5 weeks. It counts as functional. Particulars: dose mg/kg 20-50.
In data set [12] the target is T1, Hypoxia-inducible factor 1-alpha (Homo sapiens, UniProt Q16665). Kind of data set: Inhibition of HIF-1alpha in human HCT116 cells under hypoxia condition by HRE-luciferase reporter gene assay. It counts as cell-based, HCT-116. A general note: Reporter assays use an easily measured gene product as a stand-in for the process of interest.
Data set [13] has as its target T1, Hypoxia-inducible factor 1-alpha. Kind of data set: Inhibition of HIF-1alpha in human LN229 cells under hypoxia condition by HRE-luciferase reporter gene assay. It counts as cell-based.
Data set [14] shares this target. Kind of data set: Inhibition of HIF-1alpha-mediated VEGF secretion in human Hep3b cells by ELISA. It counts as cell-based.
Data set [15] shares this target. Kind of data set: Inhibition of HIF-1alpha-mediated VEGF expression in human Hep3b cells by luciferase reporter gene assay. In kind it is cell-based.
For data set [16] the target is unchanged. Kind of data set: Inhibition of HIF-1alpha transcriptional co-activator p300 interaction.

T1 sequence (Q16665 whole entry): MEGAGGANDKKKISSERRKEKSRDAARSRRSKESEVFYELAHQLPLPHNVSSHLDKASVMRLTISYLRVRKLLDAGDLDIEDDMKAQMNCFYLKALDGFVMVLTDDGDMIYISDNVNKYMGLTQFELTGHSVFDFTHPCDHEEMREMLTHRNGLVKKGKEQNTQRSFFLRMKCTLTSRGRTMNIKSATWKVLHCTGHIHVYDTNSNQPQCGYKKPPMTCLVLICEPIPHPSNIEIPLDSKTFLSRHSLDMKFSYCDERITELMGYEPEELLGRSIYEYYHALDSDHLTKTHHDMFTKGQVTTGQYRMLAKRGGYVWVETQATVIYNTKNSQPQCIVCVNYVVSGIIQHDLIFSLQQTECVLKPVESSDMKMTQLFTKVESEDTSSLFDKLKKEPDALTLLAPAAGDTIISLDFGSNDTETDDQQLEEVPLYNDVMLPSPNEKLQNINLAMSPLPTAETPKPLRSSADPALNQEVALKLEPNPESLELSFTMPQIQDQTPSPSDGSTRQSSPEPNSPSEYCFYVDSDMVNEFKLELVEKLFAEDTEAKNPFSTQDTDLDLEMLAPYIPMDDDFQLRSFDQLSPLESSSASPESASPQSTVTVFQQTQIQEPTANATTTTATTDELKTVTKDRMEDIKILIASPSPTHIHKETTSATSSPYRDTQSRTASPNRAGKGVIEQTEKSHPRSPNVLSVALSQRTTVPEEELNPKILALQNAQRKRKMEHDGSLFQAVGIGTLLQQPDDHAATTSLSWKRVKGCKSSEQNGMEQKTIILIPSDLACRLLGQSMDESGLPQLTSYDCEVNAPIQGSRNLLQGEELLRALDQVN

For the compound `OCc1ccc(-c2nn(Cc3ccccc3)c3ccccc23)o1`, in data set [1], the Activity was 400 mm3. For the compound `CNC(=C[N+](=O)[O-])NCCSCc1ccc(CN(C)C)o1` [RANITIDINE], the Papp (as a rule, the rate of passage across a membrane or cell layer, normalised by area and donor concentration) at 20 µM in [2] came to 0.6 ×10⁻⁶ cm/s. `Cn1c(CO)ccc1-c1nn(Cc2ccccc2)c2ccccc12`: in data set [1], the Activity is listed as 400 mm3. For the compound `O=C(COc1ccc(C23CC4CC(CC(C4)C2)C3)cc1)Nc1cc(C(=O)NCCCn2ccnc2)ccn1`, the Papp at 5 µM in [3] came out at 22.9 ×10⁻⁶ cm/s. The inhibition in vivo at 30 mg/kg in data set [4] came to 51.3%. In addition, the Activity in [5] is 92.7%.

On to `COC(=O)c1ccc(O)c(NC(=O)COc2ccc(C34CC5CC(CC(C5)C3)C4)cc2)c1`, for which, in data set [6], the Activity amounted to 53.6%.

With `COCCc1ccc(OCC(O)CNC(C)C)cc1` (centres undefined) [METOPROLOL], in data set [7], the apparent permeability coefficient (Papp) at 10 µM was found to be 27.2 ×10⁻⁶ cm/s.

As for `COc1cc2c(cc1O)CC[C@@H]1[C@@H]2CC[C@]2(C)[C@@H](O)CC[C@@H]12` [2-METHOXYESTRADIOL], the remaining at 2 h, 1 µM in data set [8] and in data set [9] was > 65% in each case. For the compound `COc1cc2c(cc1C(N)=O)CC[C@@H]1[C@@H]2CC[C@]2(C)CCC[C@@H]12`, the remaining at 2 h, 1 µM in data set [8] and in [9] was > 65% each time.

With `CS[C@H]1SC[C@H]2C(=O)N(C)[C@@H](C(C)C)C(=O)OC[C@@H](NC(=O)c3cnc4ccccc4n3)C(=O)N[C@@H](C)C(=O)N(C)[C@@H]1C(=O)N(C)[C@@H](C(C)C)C(=O)OC[C@@H](NC(=O)c1cnc3ccccc3n1)C(=O)N[C@@H](C)C(=O)N2C` [ECHINOMYCIN], in data set [10], the pEC50 – broadly, −log10 of the EC50, conventionally taken in molar units – is 8.92. Consider `COC(=O)c1ccc2[nH]c(COc3ccc(C45CC6CC(CC(C6)C4)C5)cc3)nc2c1`, for which the TGI (commonly how far tumour growth fell short of that in controls) in data set [11] is given as 58.6%. As for `Cc1ccc(Cn2nc(-c3nc4ccc(-c5ccc(Cl)cc5)cc4[nH]3)cc2C)cc1`, the pIC50 (as a rule, −log10 of the IC50, conventionally taken in molar units) in [12] was 8.52.

In turn, `COc1c(C(C2CCCCC2)n2cnc3c(Cl)cccc32)ccc2c1C=CC(C)(C)O2` (centres undefined) gave a pIC50 in data set [13] of 5.12.

For the compound `CN1C(=O)[C@@]23C[C@]4([C@]56C[C@@]78SS[C@@](CO)(C(=O)N7[C@H]5Nc5ccccc56)N(C)C8=O)c5ccccc5N[C@@H]4N2C(=O)[C@]1(CO)SS3` [CHAETOCIN], the pIC50 in data set [14] was 7.00; in data set [15], 7.40; in [16], 4.90.

(Values after ChEMBL document CHEMBL2203096, “Recent advances in hypoxia-inducible factor (HIF)-1 inhibitors” (Eur J Med Chem, 2012).)
